Source: US9096518B2, “Substituted hydroxamic acids and uses thereof” (Millennium Pharmaceuticals, Inc., priority 2009, dated 2015)
pIC50: −log10 of the molar value.

The compounds below were run against T1, purified human HDAC6 (Homo sapiens, UniProt Q9UBN7) (assay: HDAC6 Enzyme Assay).
T1 construct: purchased BPS Bioscience 5006
T1 sequence (Q9UBN7 1-1215): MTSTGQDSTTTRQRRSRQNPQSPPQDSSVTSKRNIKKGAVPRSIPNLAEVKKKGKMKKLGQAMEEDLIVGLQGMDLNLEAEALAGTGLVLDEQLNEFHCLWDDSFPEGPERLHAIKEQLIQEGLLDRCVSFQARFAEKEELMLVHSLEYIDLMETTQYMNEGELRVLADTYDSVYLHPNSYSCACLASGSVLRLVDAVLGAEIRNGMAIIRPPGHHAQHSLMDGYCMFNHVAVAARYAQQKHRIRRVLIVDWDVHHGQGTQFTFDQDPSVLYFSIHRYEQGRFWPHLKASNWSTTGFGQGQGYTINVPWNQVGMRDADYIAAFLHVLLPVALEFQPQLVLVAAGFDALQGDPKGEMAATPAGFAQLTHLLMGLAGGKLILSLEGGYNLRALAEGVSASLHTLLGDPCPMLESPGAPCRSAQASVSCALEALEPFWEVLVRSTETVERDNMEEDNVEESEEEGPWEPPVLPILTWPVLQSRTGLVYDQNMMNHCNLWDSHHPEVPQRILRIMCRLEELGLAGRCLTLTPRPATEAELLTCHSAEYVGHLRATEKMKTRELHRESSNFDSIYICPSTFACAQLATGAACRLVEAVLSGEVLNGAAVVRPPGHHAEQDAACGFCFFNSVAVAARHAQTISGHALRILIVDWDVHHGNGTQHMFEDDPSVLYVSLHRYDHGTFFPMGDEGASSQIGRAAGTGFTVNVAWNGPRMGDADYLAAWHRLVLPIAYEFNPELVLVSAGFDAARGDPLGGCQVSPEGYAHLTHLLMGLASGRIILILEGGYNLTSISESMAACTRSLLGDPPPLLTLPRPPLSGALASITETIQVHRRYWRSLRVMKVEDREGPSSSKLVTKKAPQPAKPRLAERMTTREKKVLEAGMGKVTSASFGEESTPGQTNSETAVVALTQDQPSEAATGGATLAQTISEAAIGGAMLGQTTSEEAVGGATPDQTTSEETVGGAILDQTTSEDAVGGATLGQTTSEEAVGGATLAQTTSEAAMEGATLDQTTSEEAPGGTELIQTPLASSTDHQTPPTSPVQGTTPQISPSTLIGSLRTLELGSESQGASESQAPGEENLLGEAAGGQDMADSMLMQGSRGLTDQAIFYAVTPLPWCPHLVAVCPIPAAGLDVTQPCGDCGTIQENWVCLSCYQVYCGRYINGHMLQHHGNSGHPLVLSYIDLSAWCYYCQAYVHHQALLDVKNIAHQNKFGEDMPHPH
Assay type: biochemical
Experimental: To measure the inhibition of HDAC6 activity, purified human HDAC6 (BPS Bioscience; Cat. No. 5006) is incubated with substrate Ac-Arg-Gly-Lys(Ac)-AMC peptide (Bachem Biosciences; Cat. No. I-1925) for 1 hour at 30° C. in the presence of test compounds or vehicle DMSO control. The reaction is stopped with the HDAC inhibitor trichostatin A (Sigma; Cat. No. T8552) and the amount of Arg-Gly-Lys-AMC generated is quantitated by digestion with trypsin (Sigma; Cat. No. T1426) and subsequent measurement of the amount of AMC released using a fluorescent plate reader (Pherastar; BMG Technologies) set at Ex 340 nm and Em 460 nm. Concentration response curves are generated by calculating the fluorescence increase in test compound-treated samples relative to DMSO-treated controls, and enzyme inhibition (IC50) values are determined from those curves.

| pIC50 | SMILES |
| --- | --- |
| 6.30 to 7.00 | O=C(NO)c1ccc2c(c1)CCN(Cc1ccc(C(F)(F)F)cc1)C2 [Compound 66, N-hydroxy-2-[4-(trifluoromethyl)benzyl]-1,2,3,4-tetrahydroisoquinoline-6-carboxamide] |
| 7.00 to 7.30 | O=C(NO)c1ccc2c(c1)CCN(Cc1nc(-c3ccc(Cl)cc3)no1)C2 [Compound 71, 2-{[3-(4-chlorophenyl)-1,2,4-oxadiazol-5-yl]methyl}-N-hydroxy-1,2,3,4-tetrahydroisoquinoline-6-carboxamide] |
| > 7.30 | O=C(NO)c1ccc2c(c1)CCN(c1nc(-c3ccc4c(c3)OCCO4)cs1)C2 [Compound 75, 2-[4-(2,3-dihydro-1,4-benzodioxin-6-yl)-1,3-thiazol-2-yl]-N-hydroxy-1,2,3,4-tetrahydroisoquinoline-6-carboxamide] |
| > 7.30 | O=C(NO)c1ccc2c(c1)CCN(C(=O)c1cnn(-c3ccccc3)c1)C2 [Compound 7, N-hydroxy-2-[(1-phenyl-1H-pyrazol-4-yl)carbonyl]-1,2,3,4-tetrahydroisoquinoline-6-carboxamide] |
| 6.30 to 7.00 | O=C(NO)c1ccc2c(c1)CCCN(C(=O)c1c(F)cc(F)cc1F)C2 [Compound 241, N-hydroxy-2-(2,4,6-trifluorobenzoyl)-2,3,4,5-tetrahydro-1H-2-benzazepine-7-carboxamide] |
| < 6.30 | O=C(NO)c1ccc2c(c1)CCCN(C(=O)Cc1cc(C(F)(F)F)cc(C(F)(F)F)c1)C2 [Compound 236, 2-{[3,5-bis(trifluoromethyl)phenyl]acetyl}-N-hydroxy-2,3,4,5-tetrahydro-1H-2-benzazepine-7-carboxamide] |
| > 7.30 | COc1ccc(S(=O)(=O)N2CCc3cc(C(=O)NO)ccc3C2)cc1 [Compound 49, N-hydroxy-2-[(4-methoxyphenyl)sulfonyl]-1,2,3,4-tetrahydroisoquinoline-6-carboxamide] |
| > 7.30 | Cn1cccc1C(=O)N1CCc2cc(C(=O)NO)ccc2C1 [Compound 1, N-hydroxy-2-[(1-methyl-1H-pyrrol-2-yl)carbonyl]-1,2,3,4-tetrahydroisoquinoline-6-carboxamide] |
| 6.30 to 7.00 | O=C(NO)c1ccc2c(c1)CCN(C(=O)C1CC=CCC1)C2 (stereo not shown) [Compound 26, 2-(cyclohex-3-en-1-ylcarbonyl)-N-hydroxy-1,2,3,4-tetrahydroisoquinoline-6-carboxamide] |
| 6.30 to 7.00 | O=C(NO)c1ccc2c(c1)CCCN(C(=O)c1cccs1)C2 [Compound 260, N-hydroxy-2-(2-thienylcarbonyl)-2,3,4,5-tetrahydro-1H-2-benzazepine-7-carboxamide] |
| 7.00 to 7.30 | Cc1c(C(=O)N2CCc3cc(C(=O)NO)ccc3C2)cnn1-c1ccccc1 [Compound 18, N-hydroxy-2-[(5-methyl-1-phenyl-1H-pyrazol-4-yl)carbonyl]-1,2,3,4-tetrahydroisoquinoline-6-carboxamide] |

Second part, the compound before the results:

| SMILES | pIC50 |
| --- | --- |
| O=C(NO)c1ccc2c(c1)CCN(C(=O)NCCc1ccccc1)C2 [Compound 91, N^6-hydroxy-N^2-(2-phenylethyl)-3,4-dihydroisoquinoline-2,6(1H)-dicarboxamide] | > 7.30 |
| O=C(NO)c1ccc2c(c1)CCN(Cc1ccc(-n3cncn3)cc1)C2 [Compound 59, N-hydroxy-2-[4-(1H-1,2,4-triazol-1-yl)benzyl]-1,2,3,4-tetrahydroisoquinoline-6-carboxamide] | 6.30 to 7.00 |
| CC(N)(Cc1ccccc1)C(=O)N1CCc2cc(C(=O)NO)ccc2C1 (stereo not shown) [Compound 20, 2-(2-amino-2-methyl-3-phenylpropanoyl)-N-hydroxy-1,2,3,4-tetrahydroisoquinoline-6-carboxamide] | 6.30 to 7.00 |
| CC(C)c1ccc(S(=O)(=O)N2CCc3cc(C(=O)NO)ccc3C2)cc1 [Compound 42, N-hydroxy-2-[(4-isopropylphenyl)sulfonyl]-1,2,3,4-tetrahydroisoquinoline-6-carboxamide] | 6.30 to 7.00 |
| O=C(NO)c1ccc2c(c1)CCN(CCOc1ccc(Cl)cc1)C2 [Compound 111, 2-[2-(4-chlorophenoxy)ethyl]-N-hydroxy-1,2,3,4-tetrahydroisoquinoline-6-carboxamide] | 6.30 to 7.00 |
| Cc1cc(C(F)(F)F)nn1CC(=O)N1CCc2cc(C(=O)NO)ccc2C1 [Compound 37, N-hydroxy-2-{[5-methyl-3-(trifluoromethyl)-1H-pyrazol-1-yl]acetyl}-1,2,3,4-tetrahydroisoquinoline-6-carboxamide] | 6.30 to 7.00 |
| O=C(NO)c1ccc2c(c1)CCCN(C(=O)c1cccc3ccccc13)C2 [Compound 234, N-hydroxy-2-(1-naphthoyl)-2,3,4,5-tetrahydro-1H-2-benzazepine-7-carboxamide] | 6.30 to 7.00 |
| CC(C)(C)C(=O)N1CCc2cc(C(=O)NO)ccc2C1 [Compound 2, 2-(2,2-dimethylpropanoyl)-N-hydroxy-1,2,3,4-tetrahydroisoquinoline-6-carboxamide] | 7.00 to 7.30 |
| O=C(NO)c1ccc2c(c1)CCN(C(=O)Nc1ccc3c(c1)OCO3)C2 [Compound 90, N^2-1,3-benzodioxol-5-yl-N^6-hydroxy-3,4-dihydroisoquinoline-2,6(1H)-dicarboxamide] | > 7.30 |
| O=C(NO)c1ccc2c(c1)CCN(CCC(=O)N1CCc3ccccc31)C2 [Compound 73, 2-[3-(2,3-dihydro-1H-indol-1-yl)-3-oxopropyl]-N-hydroxy-1,2,3,4-tetrahydroisoquinoline-6-carboxamide] | 7.00 to 7.30 |
| O=C(NO)c1ccc2c(c1)CCN(C/C=C/c1ccccc1)C2 [Compound 64, N-hydroxy-2-[(2E)-3-phenylprop-2-en-1-yl]-1,2,3,4-tetrahydroisoquinoline-6-carboxamide] | 6.30 to 7.00 |
| O=C(NO)c1ccc2c(c1)CCN(S(=O)(=O)c1csc(-c3ccon3)c1)C2 [Compound 112, N-hydroxy-2-[(5-isoxazol-3-yl-3-thienyl)sulfonyl]-1,2,3,4-tetrahydroisoquinoline-6-carboxamide] | 6.30 to 7.00 |
| O=C(NO)c1ccc2c(c1)CCCN(C(=O)C13CC4CC(CC(C4)C1)C3)C2 [Compound 232, 2-(1-adamantylcarbonyl)-N-hydroxy-2,3,4,5-tetrahydro-1H-2-benzazepine-7-carboxamide] | 6.30 to 7.00 |
| Cc1c(-c2csc(N3CCc4cc(C(=O)NO)ccc4C3)n2)sc2ccccc12 [Compound 76, N-hydroxy-2-[4-(3-methyl-1-benzothien-2-yl)-1,3-thiazol-2-yl]-1,2,3,4-tetrahydroisoquinoline-6-carboxamide] | 7.00 to 7.30 |
| Cc1ccc(C(C)C(=O)N2CCc3cc(C(=O)NO)ccc3C2)cc1 (stereo not shown) [Compound 10, N-hydroxy-2-[2-(4-methylphenyl)propanoyl]-1,2,3,4-tetrahydroisoquinoline-6-carboxamide] | 7.00 to 7.30 |
| C=CC(C)C(=O)N1CCc2cc(C(=O)NO)ccc2C1 (stereo not shown) [Compound 19, N-hydroxy-2-(2-methylbut-3-enoyl)-1,2,3,4-tetrahydroisoquinoline-6-carboxamide] | 7.00 to 7.30 |
| CC(C)(C(=O)N1CCc2ccc(C(=O)NO)cc2CC1)c1ccc(Cl)cc1 [Compound 88, 3-[2-(4-chlorophenyl)-2-methylpropanoyl]-N-hydroxy-2,3,4,5-tetrahydro-1H-3-benzazepine-7-carboxamide] | > 7.30 |
| CC(C)c1ccc(CC(=O)N2CCc3cc(C(=O)NO)ccc3C2)cc1 [Compound 35, N-hydroxy-2-[(4-isopropylphenyl)acetyl]-1,2,3,4-tetrahydroisoquinoline-6-carboxamide] | 6.30 to 7.00 |
| CCC(C)NC(=O)N1CCc2cc(C(=O)NO)ccc2C1 (stereo not shown) [Compound 93, N^2-(sec-butyl)-N^6-hydroxy-3,4-dihydroisoquinoline-2,6(1H)-dicarboxamide] | > 7.30 |
| O=C(NO)c1ccc2c(c1)CCN(S(=O)(=O)c1ccc(C(F)(F)F)cc1)C2 [Compound 52, N-hydroxy-2-{[4-(trifluoromethyl)phenyl]sulfonyl}-1,2,3,4-tetrahydroisoquinoline-6-carboxamide] | 7.00 to 7.30 |
